In patent publication US20240269306A1, “B7H4-TARGETED ANTIBODY-DRUG CONJUGATES AND METHODS OF USE THEREOF” (Mersana Therapeutics, Inc., priority 2021, published 2024):
Changes are numbered by the printed parent chain. Where “and” joins values, the source holds several entries; their conditions need not be identical. Identical values can stand only once.

Experiments:
[1] = test system: STING pathway in THP1-Dual cells co-cultured with MX-1 cancer cells; assay: STING activation, cancer cell/THP1-IRF3-Luciferase reporter cell co-culture assay (Example 36); conditions: 24 hours, concentrations based on payload, read-out: THP1-Dual cells/MX-1 co-cultures EC50
Protocol: The induction of the STING pathway in immune cells by B7-H4-targeted STING agonist conjugates was evaluated by a cancer cell/THP1-IRF3-Luciferase reporter cell co-culture assay. MX-1 cells were seeded in 96-well CellBind surface tissue culture plates (17,000 cells/well) and allowed to attach for 4 hours in RPMI-1640 medium with 10% FBS and 1% penicillin/streptomycin. […] THP1-Dual™ Cells (InvivoGen) (50,000 cells) were then added to each well and the incubation continued for 24 hours at 37° C. in a humidified atmosphere of 5% CO2. Cell culture supernatants (20 μL) from each incubated sample was added to resuspended QUANTI-Luc (InvivoGen) (50 μL) and the luminescent signal was measured immediately using a SpectraMax M5 plate reader (Molecular Devices). The EC50 values were determined from the dose response curve.

rat B7-H4 = biological target: T1, rat B7-H4 (Rattus norvegicus, UniProt Q501W4); assay: ELISA binding to rat B7-H4 (Example 30); conditions: mean of two studies
T1 construct: purchased R&D Systems 10085-B7
T1 sequence (Q501W4 25-257): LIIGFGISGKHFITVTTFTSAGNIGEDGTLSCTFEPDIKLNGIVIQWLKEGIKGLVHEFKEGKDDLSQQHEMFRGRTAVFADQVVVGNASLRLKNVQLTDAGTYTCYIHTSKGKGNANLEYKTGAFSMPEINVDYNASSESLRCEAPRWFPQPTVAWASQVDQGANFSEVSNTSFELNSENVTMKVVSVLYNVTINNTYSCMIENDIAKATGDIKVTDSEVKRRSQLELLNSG
Protocol: (§2) Recombinant human B7-H4 protein (R&D Systems #6576-B7-050) was coated onto the surface of each well of a 96-well plate by incubation with the peptide (1 μg/mL in PBS), overnight at 4° C. The wells were then blocked by incubation with BSA (5% in PBS, containing 0.1% Tween 20 (PBST)) for 1 hour at room temperature. […] The unbound test article was removed by washing with PBST (3×). A secondary anti-human IgG conjugated to HRP (0.16 μg/mL in PBST) was incubated in each well for 1 hour. The unbound secondary antibody was removed by washing with PBST (3×). The HRP substrate, TMB, was added to each well and incubated until a blue color was visible. The reaction was quenched by the addition of sulfuric acid (0.2 N, 100 μL). […] The values were plotted using GraphPad Prism software. EC50 values were determined by four-parameter curve fitting.
(§3) Proteins used in these studies were: human B7-H4 (R&D Systems; 6576-B7-050), monkey B7-H4 (Creative Biomart; VTCN1-1519R), rat (R&D Systems 10085-B7), and mouse (Creative Biomart; VTCN1-1519R).

MX-1 cells [2] = assay: Cell surface binding of STING agonist conjugates by FACS, MX-1 cells (Example 35); parameters: species or system human; conditions: Table 14
Protocol: (§4) MX-1 cells were grown in DMEM:F12K (Life Technologies) with 10% FBS (Life Technologies) and 1% penicillin/streptomycin (Life Technologies). […] For staining, cells were detached by treatment with Accutase cell detachment solution (Innovative Cell Technologies). The detached cells were triturated in media, and plated in 96 well U-bottom plates, at a density of 50,000 cells in medium (75 μL). […] The cells were washed with ice cold PBS (3×), pelleted at 1,000×RCF between each wash step, and resuspended in RPMI-1640 with 2% goat serum (100 μL) and a secondary fluorescently labeled antibody, Alexa Fluor® 647-labelled goat anti-human IgG (5 μg/mL, Life Technologies) for 1 hour on ice. The cells were washed with ice cold PBS (3×) and resuspended in ice cold PBS with 1% paraformaldehyde (100 μL). The fluorescence per cell was determined by analyzing 5,000 cells for each treatment on the flow cytometer. The median fluorescence value for each treatment was plotted, and EC50 values were calculated with Graphpad Prism software by four-parameter curve fitting.

[3] = test system: HEK-293-WT cells cocultured with CTV-labeled CD3+ T cells; assay: T-cell suppression coculture assay with HEK-293-WT cells (Example 27); format: cell-based, human; conditions: HEK-293-WT coculture, antibody 50 nM, 4 day
Protocol: (§1) Next day, the media was removed and replaced with T cell media (Iscove's Modified Dulbecco's Medium with 10% FBS and 5% penicillin/streptomycin). […] Frozen human PBMCs (2.5×10^7 cells) were thawed and enriched for CD3+ T cells using Easy Step™ human T cell isolation kit (StemCell Technologies). CD3+ T cells were labeled with CellTrace™ Violet cell proliferation kit (CTV; ThermoFisher Scientific) and adjusted to 2×10^6 cells/mL. CTV-labeled T cells (1×10^5) were added to test article-treated HEK-293-WT or HEK-293-B7-H4 cells, stimulated with Immunocult™ Human CD3/CD28 T Cell Activator (StemCell Technologies), and incubated at 37° C. in 5% CO2. After 4 day of coculture of HEK-293-WT or HEK-293-B7-H4 with CTV-labeled T cells, T cell proliferation was assessed by the dilution of CTV-labeled T cells using flow cytometry. Cocultured cells (CTV-labeled T cells and HEK-293-WT/HEK-293-B7-H4 cells) from each group were transferred to a U-bottom 96-well plate, washed with PBS, stained with live/dead Fixable Aqua dead cell staining dye (ThermoFisher Scientific), and then additionally stained with fluorophore conjugated target specific or isotype control antibodies (FITC anti-human CD45, PE/Cy7 anti-human CD4, PE anti-human CD8). Cells were fixed and surface expression of the proteins of interest was determined by flow cytometry analysis on a MACSQuant flow cytometer. Data analysis was performed by FlowJo software using the following hierarchical flow: 1) single gate, 2) live cells, 3) CD45+ cells, and 4) diluted CTV (compared to unstimulated T cells). Percentage of proliferating CD4+ or CD8+ T cell were calculated using CD4+ combined with diluted CTV and CD8+ combined with diluted CTV, respectively. Data represent the mean (±standard deviation) of triplicate wells for each test article. Table 6 gives the population (%) of live cells, CD45+, proliferating CD4+ T cells, and proliferating CD8+ T cells for each condition.

[4] = test system: HEK-293 cells stably transfected with human B7-H4; assay: Cell surface binding by FACS, HEK-293-B7-H4 cells (Example 32); conditions: mean of two replicate experiments
Protocol: as §4
(§5) HEK-293-B7-H4 cells were grown in EMEM (ATCC), 10% FBS, 1% penicillin/streptomycin, and 3 μg/ml puromycin (Life Technologies) and untransfected HEK-293 cells were grown in EMEM, 10% FBS, 1% penicillin/streptomycin. […] Results are mean values for two replicate experiments for each test article.

human B7-H4 [5] = biological target: T2, human B7-H4 (Homo sapiens, UniProt Q7Z7D3); assay: ELISA binding of variant B7-H4 cytotoxic drug conjugates to B7-H4 protein (Example 28); conditions: Table 7
T2 construct: purchased R&D Systems 6576-B7-050
T2 sequence (Q7Z7D3 25-282): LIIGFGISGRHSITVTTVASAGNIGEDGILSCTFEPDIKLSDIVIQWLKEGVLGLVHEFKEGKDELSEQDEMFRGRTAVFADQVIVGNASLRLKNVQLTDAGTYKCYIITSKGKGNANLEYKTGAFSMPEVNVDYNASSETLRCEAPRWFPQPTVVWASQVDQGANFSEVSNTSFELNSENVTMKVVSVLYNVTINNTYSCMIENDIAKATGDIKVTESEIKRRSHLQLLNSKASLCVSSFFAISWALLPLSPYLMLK
Protocol: as §2

mouse B7-H4 = biological target: T3, mouse B7-H4 (Mus musculus, UniProt Q7TSP5); assay: ELISA binding to mouse B7-H4 (Example 30); conditions: mean of two studies
T3 construct: purchased Creative Biomart VTCN1-1519R
T3 sequence (Q7TSP5 25-257): T1 sequence (Q501W4 25-257) with H109R, E228Q
Protocol: as §2, §3

human B7-H4 [6] = biological target: T2, human B7-H4; assay: ELISA binding of XMT-1603 and XMT-1604 cytotoxic drug conjugates to human B7-H4 protein (Example 29); conditions: Table 8
Protocol: as §2

human B7-H4 [7] = biological target: T2, human B7-H4; assay: ELISA binding of STING agonist conjugates to recombinant human B7-H4 protein (Example 34); conditions: Table 13
Protocol: as §2

[8] = test system: untransfected HEK-293 cells; assay: Cell surface binding by FACS, untransfected HEK-293 cells (Example 32); conditions: mean of two replicate experiments
Protocol: as §4, §5

monkey B7-H4 = assay: ELISA binding to monkey B7-H4 (Example 30); conditions: mean of two studies
Protocol: as §2, §3

[9] = test system: HEK-293-B7-H4 cells cocultured with CTV-labeled CD3+ T cells; assay: T-cell suppression coculture assay with HEK-293-B7-H4 cells (Example 27); format: cell-based, human; conditions: HEK-293-B7-H4 coculture; antibody 50 nM; 4 day; mean ± SD; two lines of values
Protocol: as §1

human B7-H4 [10] = biological target: T2, human B7-H4; assay: ELISA binding to human B7-H4 (Example 30); conditions: mean of two studies
Protocol: as §2, §3

MX-1 cells [11] = assay: Cell surface binding by FACS, MX-1 cells (Example 32); parameters: species or system human; conditions: mean of two replicate experiments
Protocol: as §4, §5

Molecule	EC50 [1] [nM]	EC50 (rat B7-H4) [nM]	EC50 (MX-1 cells [2]) [nM]	% Population Live cells (gated on single) ([3]; mean ± SD of triplicate wells, two unexplained lines of values per population)	% Population CD45+ (gated on live cells) ([3]; mean ± SD, two lines of values)	% Population Proliferating CD4+ (gated on single/live cells/CD45+) ([3]; mean ± SD, two lines of values)	% Population Proliferating CD8+ (gated on single/live cells/CD45+) ([3]; mean ± SD, two lines of values)	EC50 [4] [nM]	EC50 (human B7-H4 [5]) [nM]	EC50 (mouse B7-H4) [nM]	EC50 (human B7-H4 [6]) [nM]	EC50 (human B7-H4 [7]) [nM]	EC50 [8] [nM]	EC50 (monkey B7-H4) [nM]	% Population CD45+ (gated on live cells) [9]	% Population Live cells (gated on single) [9]	% Population Proliferating CD8+ (gated on single/live cells/CD45+) [9]	EC50 (human B7-H4 [10]) [nM]	EC50 (MX-1 cells [11]) [nM]
Cc1ccc2c(=O)c3cccc(CC(=O)O)c3oc2c1C [STING agonist]	> 100																		
Palivizumab		> 100	> 200	78.2 ± 0.4% and 85.6 ± 11.2%	69.0 ± 5.1% and 43.0 ± 11.0%	32.9 ± 2.6% and 22.4 ± 2.3%	9.5 ± 1.6% and 3.5 ± 0.8%	> 100	> 100	> 100	> 100	> 100	> 100	> 100	48.3 ± 4.1% and 50.1 ± 3.7%	80.1 ± 2.0% and 95.5 ± 2.8%	3.4 ± 0.5% and 1.1 ± 0.6%	> 100	> 100
